Reference: article PMC9142520, “Molecular encoding and synaptic decoding of context during salt chemotaxis in C. elegans” (Nature Communications, 2022)

Target: T1, GLR-1(+STG-1, SOL-1) (Caenorhabditis elegans, UniProt P34299)
T1 construct: cRNAs of GLR-1, SOL-1 and STG-1 co-injected into Xenopus laevis oocytes; homomeric GLR-1 with auxiliary proteins; with CUB domain-containing protein SOL-1 (suppressor of lurcher 1); Stargazin-like protein STG-1
T1 sequence (P34299 26-962): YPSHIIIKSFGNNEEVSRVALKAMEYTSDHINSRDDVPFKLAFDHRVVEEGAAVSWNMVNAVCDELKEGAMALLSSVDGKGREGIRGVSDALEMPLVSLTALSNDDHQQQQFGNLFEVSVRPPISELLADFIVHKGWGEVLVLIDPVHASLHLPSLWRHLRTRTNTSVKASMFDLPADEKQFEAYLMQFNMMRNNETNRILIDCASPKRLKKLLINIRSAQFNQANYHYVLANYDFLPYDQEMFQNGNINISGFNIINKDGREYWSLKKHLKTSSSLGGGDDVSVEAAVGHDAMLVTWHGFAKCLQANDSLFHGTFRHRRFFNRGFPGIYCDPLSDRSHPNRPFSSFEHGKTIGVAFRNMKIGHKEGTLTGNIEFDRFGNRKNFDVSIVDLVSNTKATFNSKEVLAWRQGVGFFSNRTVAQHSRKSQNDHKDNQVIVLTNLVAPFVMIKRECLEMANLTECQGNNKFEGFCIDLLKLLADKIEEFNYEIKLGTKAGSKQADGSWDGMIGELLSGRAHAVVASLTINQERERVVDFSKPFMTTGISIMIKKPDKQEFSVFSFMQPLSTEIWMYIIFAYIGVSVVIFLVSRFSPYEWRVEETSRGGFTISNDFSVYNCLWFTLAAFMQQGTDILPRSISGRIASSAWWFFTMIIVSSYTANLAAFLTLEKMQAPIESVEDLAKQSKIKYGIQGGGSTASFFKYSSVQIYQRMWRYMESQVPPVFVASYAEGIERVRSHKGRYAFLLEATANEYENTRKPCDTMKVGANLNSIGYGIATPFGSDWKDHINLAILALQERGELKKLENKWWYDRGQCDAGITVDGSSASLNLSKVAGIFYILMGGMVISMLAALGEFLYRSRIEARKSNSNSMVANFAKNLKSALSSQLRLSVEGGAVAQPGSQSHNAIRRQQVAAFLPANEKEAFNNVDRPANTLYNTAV
T1 sequence (Q15KL0 1-366 partner): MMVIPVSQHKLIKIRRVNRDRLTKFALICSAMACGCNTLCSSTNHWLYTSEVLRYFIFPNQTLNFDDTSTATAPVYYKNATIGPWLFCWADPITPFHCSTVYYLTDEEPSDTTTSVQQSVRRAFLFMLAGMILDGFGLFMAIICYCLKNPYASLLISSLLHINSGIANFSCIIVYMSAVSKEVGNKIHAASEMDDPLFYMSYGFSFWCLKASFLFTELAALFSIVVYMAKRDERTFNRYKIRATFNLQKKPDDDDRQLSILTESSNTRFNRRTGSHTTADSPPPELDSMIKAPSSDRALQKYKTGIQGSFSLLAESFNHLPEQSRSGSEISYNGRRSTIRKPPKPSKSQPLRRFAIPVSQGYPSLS
T1 sequence (Q93212 24-594 partner): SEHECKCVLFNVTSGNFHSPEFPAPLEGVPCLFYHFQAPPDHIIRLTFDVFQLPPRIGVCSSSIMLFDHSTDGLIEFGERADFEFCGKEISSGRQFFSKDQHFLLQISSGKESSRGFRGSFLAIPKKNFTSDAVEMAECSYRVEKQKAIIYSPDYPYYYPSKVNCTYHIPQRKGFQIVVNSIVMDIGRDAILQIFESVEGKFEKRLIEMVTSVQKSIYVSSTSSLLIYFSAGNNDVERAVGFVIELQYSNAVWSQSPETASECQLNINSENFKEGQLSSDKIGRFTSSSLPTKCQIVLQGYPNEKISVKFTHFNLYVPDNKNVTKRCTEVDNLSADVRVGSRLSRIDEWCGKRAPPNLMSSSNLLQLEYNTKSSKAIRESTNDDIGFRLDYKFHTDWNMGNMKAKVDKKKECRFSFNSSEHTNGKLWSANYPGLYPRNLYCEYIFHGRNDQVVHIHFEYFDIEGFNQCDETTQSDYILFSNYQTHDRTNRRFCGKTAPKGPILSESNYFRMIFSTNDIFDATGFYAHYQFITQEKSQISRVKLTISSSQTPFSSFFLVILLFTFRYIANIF
Experiment: two-electrode voltage clamp of Xenopus oocytes, glutamate dose-response current
Type: cell-based
Settings: agonist; inward cation current; with SOL-1 and STG-1; clamped -50 to -60 mV; pH 7.2; 0.1-10 mM glutamate for 20 s

N[C@@H](CCC(=O)O)C(=O)O [glutamate]
two-electrode voltage clamp of Xenopus oocytes, glutamate dose-response current: Dose-response relationship of GLR-1-expressing Xenopus oocyte
